Measurements taken from patent US4044043A, “Derivatives of 9-oxo-13-trans-prostenoic acid esters” (American Cyanamid Company, priority 1975, dated 1977).
Converted amounts (≈) assume the structure as drawn. Read-outs that look alike come from different tables or passages of the source.

Tests used:
[1] = system: dl-PGE1-induced contraction of gerbil colon; assay: Inhibition of dl-PGE1-Induced Contraction of Gerbil Colon (prostaglandin antagonist action); type: cell-based, gerbils (Meriones unguiculatus); details: Meriones unguiculatus, 1 min
Procedure, shortened: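 Ascending colon from male gerbils, held in De Jalon's solution at 37 °C under 95% O2/5% CO2 with 0.5 g resting tension, contraction recorded isometrically. 1 min compound exposure, then 1 min dl-PGE1 at 200 ng/ml (maximal) or 20 ng/ml (sub-maximal). Approximate ID50 taken from a concentration series against the preceding agonist-only cycle.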

[2] = system: gastric acid secretion; assay: Inhibition of Gastric Acid Secretion (Pylorous-Ligated Rat), Shay rat procedure; type: in vivo, rats (male, CFE strain); details: read-out: % Inhibition of Control Gastric Acid Secretion; for inhibition in vivo at 50 mg/kg: 50 mg./kg. intraduodenal; for inhibition in vivo at 100 mg/kg: 100 mg./kg. intraduodenal
Procedure, shortened: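 Male CFE rats were fasted 48 h, then pylorus-ligated under ether. Gastric contents were titrated with 0.02N or 0.04N NaOH to pH 8.4 for acid output, and ≥20% inhibition counted as active.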

[3] = system: bronchospasms elicited by acetylcholine; assay: Bronchodilator Activity (Konzett Assay) against acetylcholine; type: in vivo, guinea pigs; details: Cavia porcellus; three logarithmic cumulative intravenous doses
Procedure, shortened: (§1)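 Guinea pigs given intravenous spasmogen (5-hydroxytryptamine, histamine or acetylcholine) per Konzett procedure. ED50 derived from three logarithmic cumulative intravenous doses of test compound.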

[4] = system: bronchospasms elicited by 5-hydroxytryptamine; assay: Bronchodilator Activity (Konzett Assay) against 5-hydroxytryptamine; type: in vivo, guinea pigs; details: Cavia porcellus; three logarithmic cumulative intravenous doses
Procedure, shortened: as §1

[5] = system: bronchospasms elicited by histamine; assay: Bronchodilator Activity (Konzett Assay) against histamine; type: in vivo, guinea pigs; details: Cavia porcellus; three logarithmic cumulative intravenous doses
Procedure, shortened: as §1

[6] = sub-maximal challenge, 20 ng./ml. dl-PGE1, 50% inhibition of maximum response, read-out: ID50 vs. 20 ng. of PGE1/ml.
[7] = 200 ng./ml. dl-PGE1, read-out: ID50 vs. 200 ng. of PGE1/ml.

| IC50 [1, 6] [mg/L] | IC50 [1, 7] [mg/L] | Compound | inhibition in vivo at 50 mg/kg [2] [%] | ED50 [3] [mg/kg] | ED50 [4] [mg/kg] | ED50 [5] [mg/kg] | inhibition in vivo at 100 mg/kg [2] [%] | inhibition in vivo at 200 mg/kg ([2]; 200 mg./kg. intraduodenal) [%] |
| --- | --- | --- | --- | --- | --- | --- | --- | --- |
| 2.5 to 5 (≈ 7.43 to 14.9 µM) |  | CCCCCC/C=C/[C@@H]1CCCC(=O)[C@H]1CCCCCCC(=O)O (relative stereo) [9-oxo-10a-homo-13-trans-prostenoic acid] | 80 | > 10.1 | > 10.1 | 10.1 |  |  |
| 2.5 to 5 (≈ 7.8 to 15.6 µM) |  | CC/C=C\CC/C=C/[C@@H]1CCC(=O)[C@H]1CCCCCCC(=O)O (relative stereo) [9-oxo-13-trans-17-cis-prostadienoic acid] |  | 6 | 0.422 | 0.65 | 21 |  |
| 5 (≈ 16.2 µM) |  | CCCCC/C=C/[C@H]1CCC(=O)[C@@H]1CCCCCCC(=O)O (relative stereo) [9-oxo-20-nor-13-trans-prostenoic acid] |  | 1.17 | 0.152 | 0.126 | 49 |  |
| 5 to 10 (≈ 14 to 28 µM) |  | O=C(O)CCCCCC[C@H]1C(=O)CC[C@@H]1/C=C/CCCCCCCl (relative stereo) [20-chloro-9-oxo-13-trans-prostenoic acid] |  | 4.82 | 2.39 | 1.22 | 56 |  |
| 1 to 2.5 (≈ 3.18 to 7.94 µM) |  | O=C(O)CCCCCC[C@@H]1C(=O)CC[C@H]1/C=C/CCCCl (relative stereo) [20-chloro-9-oxo-17,18,19-trinor-13-trans-prostenoic acid] |  | 3.87 | 1.48 | 0.928 | 34 |  |
| 1.5 to 2 (≈ 4.65 to 6.2 µM) | 9 to 10 (≈ 27.9 to 31 µM) | CCCCCC/C=C/[C@H]1CCC(=O)[C@@H]1CCCCCCC(=O)O (relative stereo) [9-oxo-13-trans-prostenoic acid] |  | 1.02 | 0.077 | 0.232 |  | 69 |
|  | 10 to 15 (≈ 35.7 to 53.5 µM) | CCC/C=C/[C@H]1CCC(=O)[C@@H]1CCCCCCC(=O)O (relative stereo) [9-oxo-18,19,20-trinor-13-trans-prostenoic acid] | 50 | 6.42 | 0.484 | 0.837 | 92 |  |
| 0.25 to 0.5 (≈ 0.81 to 1.62 µM) |  | CC(C)CC/C=C/[C@@H]1CCC(=O)[C@H]1CCCCCCC(=O)O (relative stereo) [17-methyl-9-oxo-19,20-dinor-13-trans-prostenoic acid] |  | 4.3 | 2.8 | 1.07 | 28 |  |
| 2 to 2.5 (≈ 5.94 to 7.43 µM) |  | CCCCCCC/C=C/[C@@H]1CCC(=O)[C@H]1CCCCCCC(=O)O (relative stereo) [20-methyl-9-oxo-13-trans-prostenoic acid] |  | 2.44 | 3.42 | 0.126 | 34 |  |
